# ChEMBL document CHEMBL2021770, “Potent and Selective Inhibitors of Long Chain l-2-Hydroxy Acid Oxidase Reduced Blood Pressure in DOCA Salt-Treated Rats” (ACS Med Chem Lett, 2011)
# Active and inactive are the calls of the source. The calls are words filed in the database; no cut-off is given here.
# What was measured:
# [1] = molecular target: Hydroxycarboxylic acid receptor 2 (Homo sapiens) (UniProt Q8TDS4); assay: Agonist activity at human GPR109a at 10 uM; assay type: functional
# [2] = Plasma concentration in Wistar rat at 30 mg/kg, po bid administered for 15 days measured 1 hr post-last dose; assay type: ADME, organism-based; set-up: dose 30 mg/kg, route oral
# Cytochrome P450 2C9 = Cytochrome P450 2C9 (Homo sapiens, UniProt P11712); assay: Inhibition of CYP2C9; assay type: ADME
# 2-Hydroxyacid oxidase 1 = molecular target: T1, 2-Hydroxyacid oxidase 1 (Rattus norvegicus, UniProt B0BNF9); assay: Inhibition of rat His6-tagged Hao1 expressed in Escherichia coli BL21/DE3 using glcolic acid as substrate measured every 10 secs by spectrophotometry
# T1 sequence (B0BNF9 whole entry): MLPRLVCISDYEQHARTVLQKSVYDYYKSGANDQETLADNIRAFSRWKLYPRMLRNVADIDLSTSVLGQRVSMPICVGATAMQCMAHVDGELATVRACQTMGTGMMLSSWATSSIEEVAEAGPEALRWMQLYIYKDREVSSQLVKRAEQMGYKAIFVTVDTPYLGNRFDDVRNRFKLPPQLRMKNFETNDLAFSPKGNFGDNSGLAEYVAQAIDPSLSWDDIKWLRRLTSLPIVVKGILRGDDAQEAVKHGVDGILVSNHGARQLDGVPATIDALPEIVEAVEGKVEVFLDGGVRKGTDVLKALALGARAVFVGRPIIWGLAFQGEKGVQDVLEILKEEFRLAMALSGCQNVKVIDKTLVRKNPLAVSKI
# [3] = Induction of cytochrome P450 at 10 uM; assay type: ADME
# Cytochrome P450 2C19 = Cytochrome P450 2C19 (Homo sapiens, UniProt P33261); assay: Inhibition of CYP2C19; assay type: ADME
# [4] = AUC (0 to 8 hrs) in rat at 1 mg/kg, iv; assay type: ADME, organism-based; set-up: time < 8 hr, dose 1 mg/kg, route intravenous; details: plasma
# [5] = Clearance in rat at 1 mg/kg, iv; assay type: ADME, organism-based; set-up: dose 1 mg/kg, route intravenous; details: in vivo
# Rattus norvegicus [6] = assay: (§1) Ex-vivo inhibition of Hao2 in DOCA-salt treated Wistar rat kidney using [3H]-2-hydroxyoctanate as substrate assessed as inhibition of [3H]-H2O production at 3 mg/kg, po bid administered 29 days post DOCA-challenge for 15 days measured 12 to 15 hrs post-last dose by microbeta counting relative to vehicle-treated control; assay type: functional
# [7] = Elimination half life in rat at 1 mg/kg, iv; assay type: ADME, organism-based; set-up: dose 1 mg/kg, route intravenous; details: in vivo, read-out: beta t1/2 (converted)
# Rattus norvegicus [8] = assay: as §1, with “1 hr” for “12 to 15 hrs”; assay type: functional
# Plasma [9] = assay: Plasma concentration in Wistar rat at 3 mg/kg, po bid administered for 15 days measured 12 to 15 hrs post-last dose; assay type: ADME, organism-based; set-up: dose 3 mg/kg, route oral; details: in vivo
# Cytochrome P450 1A2 = molecular target: T2, Cytochrome P450 1A2 (Homo sapiens, UniProt P05177); assay: Inhibition of CYP1A2; assay type: ADME
# T2 sequence (P05177 whole entry): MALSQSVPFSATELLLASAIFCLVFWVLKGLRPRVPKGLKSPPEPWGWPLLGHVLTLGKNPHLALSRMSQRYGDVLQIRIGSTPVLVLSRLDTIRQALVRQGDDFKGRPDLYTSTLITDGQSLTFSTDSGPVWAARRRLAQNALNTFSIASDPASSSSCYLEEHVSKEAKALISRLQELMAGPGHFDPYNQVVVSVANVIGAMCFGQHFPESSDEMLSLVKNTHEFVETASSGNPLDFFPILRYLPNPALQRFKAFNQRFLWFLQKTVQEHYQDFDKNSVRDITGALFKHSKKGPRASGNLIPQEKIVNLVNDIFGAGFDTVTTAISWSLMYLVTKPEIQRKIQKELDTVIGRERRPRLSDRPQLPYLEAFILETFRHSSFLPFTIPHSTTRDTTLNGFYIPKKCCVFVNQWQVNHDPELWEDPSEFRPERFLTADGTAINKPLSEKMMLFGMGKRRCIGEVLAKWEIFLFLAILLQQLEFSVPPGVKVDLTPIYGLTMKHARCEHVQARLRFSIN
# 2-Hydroxyacid oxidase 2 = molecular target: T3, 2-Hydroxyacid oxidase 2 (Rattus norvegicus, UniProt Q07523); assay: Inhibition of rat His6-tagged Hao2 expressed in Escherichia coli BL21/DE3 using 2-hydroxyoctanoic acid as substrate measured every 10 secs by spectrophotometry
# T3 sequence (Q07523 whole entry): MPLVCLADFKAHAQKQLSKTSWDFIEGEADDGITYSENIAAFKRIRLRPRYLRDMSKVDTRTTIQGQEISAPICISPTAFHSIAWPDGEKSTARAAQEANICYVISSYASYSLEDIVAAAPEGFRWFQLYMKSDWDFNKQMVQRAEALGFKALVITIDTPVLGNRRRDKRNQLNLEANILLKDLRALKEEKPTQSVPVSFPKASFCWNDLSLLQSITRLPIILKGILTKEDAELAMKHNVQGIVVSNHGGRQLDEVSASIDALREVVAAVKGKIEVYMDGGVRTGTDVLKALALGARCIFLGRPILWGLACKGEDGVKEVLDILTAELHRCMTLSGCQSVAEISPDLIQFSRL
# [10] = Plasma concentration in Wistar rat at 3 mg/kg, po bid administered for 15 days measured 1 hr post-last dose; assay type: ADME, organism-based; set-up: dose 3 mg/kg, route oral
# [11] = Plasma protein binding in rat; assay type: ADME, cell-free; details: read-out: PPB
# [12] = Volume of distribution at steady state in rat at 1 mg/kg, iv; assay type: ADME, organism-based; set-up: dose 1 mg/kg, route intravenous; details: in vivo, read-out: Vdss
# [13] = molecular target: T4, Nuclear receptor subfamily 1 group I member 2 (Homo sapiens, UniProt O75469); assay: Induction of PXR at 100 uM
# T4 sequence (O75469 whole entry): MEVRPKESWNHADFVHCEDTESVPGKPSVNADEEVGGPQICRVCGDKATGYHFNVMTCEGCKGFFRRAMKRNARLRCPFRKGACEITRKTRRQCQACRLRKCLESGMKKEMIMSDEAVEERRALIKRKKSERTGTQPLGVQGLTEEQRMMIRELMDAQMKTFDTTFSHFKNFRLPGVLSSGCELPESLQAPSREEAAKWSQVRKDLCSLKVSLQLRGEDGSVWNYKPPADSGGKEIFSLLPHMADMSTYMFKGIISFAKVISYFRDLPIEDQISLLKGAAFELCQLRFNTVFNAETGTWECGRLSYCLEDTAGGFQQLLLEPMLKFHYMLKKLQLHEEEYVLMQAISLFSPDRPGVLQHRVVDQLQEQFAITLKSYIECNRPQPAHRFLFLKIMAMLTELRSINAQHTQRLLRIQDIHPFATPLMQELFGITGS
# Kidney [14] = assay: Drug uptake in Wistar rat kidney at 3 mg/kg, po bid administered for 15 days measured 1 hr post-last dose; assay type: ADME, organism-based; set-up: dose 3 mg/kg, route oral; details: in vivo
# Rattus norvegicus [15] = assay: Antihypertensive activity in DOCA-salt treated Wistar rat assessed as decrease in systolic blood pressure at 30 mg/kg, po bid administered 29 days after DOCA-salt-challenge for 15 days 12 to 15 hrs post-last dose by plethysmography; assay type: functional, Artery
# HepG2 = assay: Cytotoxicity against human HepG2 cells; assay type: cell-based
# Kidney [16] = assay: Drug uptake in Wistar rat kidney at 3 mg/kg, po bid administered for 15 days measured 12 to 15 hrs post-last dose; assay type: ADME, organism-based; set-up: dose 3 mg/kg, route oral; details: in vivo
# Rattus norvegicus [17] = assay: Antihypertensive activity in DOCA-salt treated Wistar rat assessed as decrease in systolic blood pressure at 3 mg/kg, po bid administered 29 days after DOCA-salt-challenge for 15 days 12 to 15 hrs post-last dose by plethysmography; assay type: functional
# Kidney [18] = assay: Drug uptake in Wistar rat kidney at 30 mg/kg, po bid administered for 15 days measured 1 hr post-last dose; assay type: ADME, organism-based; set-up: dose 30 mg/kg, route oral; details: in vivo
# [19] = AUC (0 to 8 hrs) in rat at 10 mg/kg, po; assay type: ADME, organism-based; set-up: time < 8 hr, dose 10 mg/kg, route oral; details: plasma
# Kidney [20] = assay: Drug uptake in Wistar rat kidney at 30 mg/kg, po bid administered for 15 days measured 12 to 15 hrs post-last dose; assay type: ADME, organism-based; set-up: dose 30 mg/kg, route oral; details: in vivo
# Cytochrome P450 3A4 = Cytochrome P450 3A4 (Homo sapiens, UniProt P08684); assay: Inhibition of CYP3A4; assay type: ADME
# [21] = Cmax in rat at 10 mg/kg, po; assay type: ADME, organism-based; set-up: dose 10 mg/kg, route oral; details: in vivo
# Cytochrome P450 2D6 = Cytochrome P450 2D6 (Homo sapiens, UniProt P10635); assay: Inhibition of CYP2D6; assay type: ADME
# [22] = Elimination half life in rat at 10 mg/kg, po; assay type: ADME, organism-based; set-up: dose 10 mg/kg, route oral; details: in vivo, read-out: beta t1/2 (converted)
# Plasma [23] = assay: Plasma concentration in Wistar rat at 30 mg/kg, po bid administered for 15 days measured 12 to 15 hrs post-last dose; assay type: ADME, organism-based; set-up: dose 30 mg/kg, route oral; details: in vivo
# [24] = Tmax in rat at 10 mg/kg, po; assay type: ADME, organism-based; set-up: dose 10 mg/kg, route oral; details: in vivo
# [25] = Drug metabolism in rat liver microsomes assessed as metabolic rate per 0.125 mg/mL protein; assay type: ADME, Microsome
# Rattus norvegicus [26] = assay: Antihypertensive activity in Wistar rat assessed as reduction in DOCA-salt-induced systolic blood pressure elevation at 30 mg/kg, po bid administered on day 14 post DOCA-challenge for 21 days measured 12 to 15 hrs post-last dose by plethysmography relative to vehicle-treated control; assay type: functional, organism-based; set-up: dose 30 mg/kg; details: Artery
# Rattus norvegicus [27] = assay: as §1, with “at 30” for “at 3”, “measured 1 hr” for “measured 12 to 15 hrs”; assay type: functional
# Rattus norvegicus [28] = assay: as §1, with “at 30” for “at 3”; assay type: functional
# [29] = Oral bioavailability in rat at 10 mg/kg; assay type: ADME, organism-based; details: in vivo
# Rattus norvegicus [30] = species: Rattus norvegicus; assay: Selectivity ratio of IC50 for rat Hao1 to IC50 for rat Hao2
# [31] = molecular target: T5, 2-Hydroxyacid oxidase 1 (Rattus norvegicus) (UniProt B0BNF9); assay: Inhibition of rat His6-tagged Hao1 expressed in Escherichia coli BL21/DE3 using glcolic acid as substrate at 10 uM measured every 10 secs by spectrophotometry
# T5 sequence (whole entry): T1 sequence (B0BNF9 whole entry)
# Sequence of Cytochrome P450 2D6 (P10635 whole entry): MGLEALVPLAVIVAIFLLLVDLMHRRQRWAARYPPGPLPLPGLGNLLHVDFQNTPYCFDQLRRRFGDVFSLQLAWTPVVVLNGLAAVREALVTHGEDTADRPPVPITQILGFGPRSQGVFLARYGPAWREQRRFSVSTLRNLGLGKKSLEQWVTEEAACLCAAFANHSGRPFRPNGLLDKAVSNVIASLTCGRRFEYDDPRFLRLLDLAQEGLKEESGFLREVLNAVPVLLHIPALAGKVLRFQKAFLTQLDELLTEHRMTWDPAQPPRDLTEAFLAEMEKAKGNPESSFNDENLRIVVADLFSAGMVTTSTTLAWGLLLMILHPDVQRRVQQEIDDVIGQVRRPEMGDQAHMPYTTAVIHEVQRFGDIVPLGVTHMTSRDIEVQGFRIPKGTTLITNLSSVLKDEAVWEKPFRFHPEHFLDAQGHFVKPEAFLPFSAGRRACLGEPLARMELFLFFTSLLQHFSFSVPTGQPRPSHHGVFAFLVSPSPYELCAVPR
# Sequence of Cytochrome P450 3A4 (P08684 whole entry): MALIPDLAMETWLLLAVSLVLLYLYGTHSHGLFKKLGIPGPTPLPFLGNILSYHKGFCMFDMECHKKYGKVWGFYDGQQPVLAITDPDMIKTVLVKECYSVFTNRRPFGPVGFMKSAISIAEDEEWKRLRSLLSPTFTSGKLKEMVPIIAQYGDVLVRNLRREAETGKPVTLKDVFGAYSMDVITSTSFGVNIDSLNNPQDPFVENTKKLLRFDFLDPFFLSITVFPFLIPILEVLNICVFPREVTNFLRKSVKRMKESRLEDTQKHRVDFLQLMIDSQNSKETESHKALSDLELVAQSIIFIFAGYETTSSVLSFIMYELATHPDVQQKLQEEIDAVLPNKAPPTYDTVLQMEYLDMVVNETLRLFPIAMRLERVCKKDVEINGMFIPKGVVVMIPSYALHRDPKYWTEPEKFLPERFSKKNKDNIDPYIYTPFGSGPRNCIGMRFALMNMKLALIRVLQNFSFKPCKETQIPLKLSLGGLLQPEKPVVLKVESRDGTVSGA
# Sequence of Cytochrome P450 2C19 (P33261 whole entry): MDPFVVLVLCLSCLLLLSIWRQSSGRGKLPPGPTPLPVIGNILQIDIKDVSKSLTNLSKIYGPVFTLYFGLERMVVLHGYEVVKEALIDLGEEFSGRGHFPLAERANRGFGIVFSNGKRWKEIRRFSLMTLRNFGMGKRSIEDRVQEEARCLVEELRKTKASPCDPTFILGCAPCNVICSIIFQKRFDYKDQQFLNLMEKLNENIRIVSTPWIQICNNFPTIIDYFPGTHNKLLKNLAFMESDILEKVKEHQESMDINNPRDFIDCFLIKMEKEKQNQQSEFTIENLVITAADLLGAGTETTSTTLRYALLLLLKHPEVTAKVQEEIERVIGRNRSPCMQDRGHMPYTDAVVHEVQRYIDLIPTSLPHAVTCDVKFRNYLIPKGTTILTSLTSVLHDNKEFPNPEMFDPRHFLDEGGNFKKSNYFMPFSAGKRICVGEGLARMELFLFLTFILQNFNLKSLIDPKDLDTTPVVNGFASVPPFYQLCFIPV
# Sequence of Cytochrome P450 2C9 (P11712 whole entry): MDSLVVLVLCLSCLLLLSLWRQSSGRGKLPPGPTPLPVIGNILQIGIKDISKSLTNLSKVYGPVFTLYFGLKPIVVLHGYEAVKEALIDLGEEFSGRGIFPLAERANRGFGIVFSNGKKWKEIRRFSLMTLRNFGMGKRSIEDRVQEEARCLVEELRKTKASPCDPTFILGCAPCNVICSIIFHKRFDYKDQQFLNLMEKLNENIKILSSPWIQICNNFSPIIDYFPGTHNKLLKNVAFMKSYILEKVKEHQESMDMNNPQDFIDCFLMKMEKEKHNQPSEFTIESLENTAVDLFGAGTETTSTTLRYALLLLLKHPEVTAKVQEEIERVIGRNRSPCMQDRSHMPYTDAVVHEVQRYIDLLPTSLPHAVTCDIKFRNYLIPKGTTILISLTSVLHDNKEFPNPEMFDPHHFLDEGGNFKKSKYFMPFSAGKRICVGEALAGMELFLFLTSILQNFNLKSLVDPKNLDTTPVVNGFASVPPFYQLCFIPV
# Sequence of Hydroxycarboxylic acid receptor 2 (Homo sapiens) (Q8TDS4 whole entry): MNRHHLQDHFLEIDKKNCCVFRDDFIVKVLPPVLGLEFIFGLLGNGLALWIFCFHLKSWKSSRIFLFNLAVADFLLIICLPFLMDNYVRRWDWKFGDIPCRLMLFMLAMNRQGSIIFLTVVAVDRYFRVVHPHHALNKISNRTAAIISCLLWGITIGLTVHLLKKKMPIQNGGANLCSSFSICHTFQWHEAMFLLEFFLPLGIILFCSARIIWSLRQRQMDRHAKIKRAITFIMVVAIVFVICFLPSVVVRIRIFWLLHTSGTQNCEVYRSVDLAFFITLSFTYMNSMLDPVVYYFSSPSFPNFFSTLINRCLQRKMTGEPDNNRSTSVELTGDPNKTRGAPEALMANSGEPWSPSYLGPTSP
Structure (SMILES),Activity [1],concentration at 1 h [2] [µM],IC50 (Cytochrome P450 2C9) [µM],Activity [3],IC50 (Cytochrome P450 2C19) [µM],AUC(0-t) at 8 h [4] [µM·h],clearance [5] [mL/min/kg],inhibition in vivo at 3 mg/kg (Rattus norvegicus [6]) [%],half-life [7] [h],inhibition in vivo at 3 mg/kg (Rattus norvegicus [8]) [%],concentration (Plasma [9]) [µM],IC50 (Cytochrome P450 1A2) [µM],IC50 (2-Hydroxyacid oxidase 2) [µM],concentration at 1 h [10] [µM],fraction unbound [11],Vd [12] [L/kg],Activity [13],Drug uptake (Kidney [14]) [nmol/g],Activity (Rattus norvegicus [15]) [mmHg],IC50 (HepG2) [µM],also measured
Cc1n[nH]c(C(=O)O)c1Cc1cccc(-c2ccc(F)cc2)c1,inactive,8,> 10,Not Active,> 10,7.1,8,0,1.7,29,0.2,> 10,0.3,2.2,< 0.01,0.6,Not Active,10,31,> 100,IC50 (2-Hydroxyacid oxidase 1): 45.7 µM; Drug uptake (Kidney [16]): 3 nmol/g; Activity (Rattus norvegicus [17]): 32 mmHg; Drug uptake (Kidney [18]): 24 nmol/g; AUC(0-t) at 8 h [19]: 27 µM·h; Drug uptake (Kidney [20]): 7 nmol/g; IC50 (Cytochrome P450 3A4): > 10 µM; Cmax [21]: 24 µM; IC50 (Cytochrome P450 2D6): > 10 µM; half-life [22]: 1.5 h; concentration (Plasma [23]): 1.9 µM; Tmax [24]: 0.25 h; Drug metabolism [25]: 0.003 nmol/min/mg; Activity (Rattus norvegicus [26]): Active; inhibition in vivo at 30 mg/kg (Rattus norvegicus [27]): 38%; inhibition in vivo at 30 mg/kg (Rattus norvegicus [28]): 28%; bioavailability [29]: 38%; Ratio IC50 (Rattus norvegicus [30]): 150
Cc1[nH]nc(C(=O)O)c1CCc1ccccc1,,,,,,,,,,,,,4.27,,,,,,,,
Cc1[nH]nc(C(=O)O)c1Cc1cc2ccccc2s1,,157,> 10,Not Active,> 10,97,0.52,,3.7,,12,> 10,0.3,48,< 0.01,0.14,Not Active,34,,,Drug uptake (Kidney [16]): 13 nmol/g; Drug uptake (Kidney [18]): 113 nmol/g; AUC(0-t) at 8 h [19]: 517 µM·h; IC50 (Cytochrome P450 3A4): > 10 µM; Cmax [21]: 134 µM; IC50 (Cytochrome P450 2D6): > 10 µM; half-life [22]: 4.1 h; concentration (Plasma [23]): 86 µM; Tmax [24]: 0.25 h; Drug metabolism [25]: 0.02 nmol/min/mg; bioavailability [29]: 53%
Cc1n[nH]c(C(=O)O)c1Cc1cc2ccccc2s1,inactive,,,,,,,0,,75,,,,,,,,,33,> 100,inhibition [31]: inactive; Activity (Rattus norvegicus [17]): 27 mmHg; inhibition in vivo at 30 mg/kg (Rattus norvegicus [27]): 93%; inhibition in vivo at 30 mg/kg (Rattus norvegicus [28]): 42%; Ratio IC50 (Rattus norvegicus [30]): 150
